According to US4380644A, “2-Oxoimidazolidine derivatives” (Tanabe Siyaku Co., Ltd., priority 1980, dated 1983):

Columns and labels:
[1] = target: T1, angiotensin-converting enzyme (ACE) (Rattus norvegicus, UniProt P47820); assay: ACE-inhibitory activity in vivo (pressor response to angiotensin I); conditions: 1.0 mg/kg orally, anesthetized normotensive rats; for Duration of action: ACE inhibition; for inhibition at 1 mg/kg: rat, read-out: ACE-inhibitory activity (%), percentage inhibition of ACE-activity in vivo
T1 construct: Normotensive rats were anesthetized with urethane; from tissue; host or cells: endogenous enzyme of the whole living animal (normotensive rats, in vivo)
T1 sequence (P47820 36-1313): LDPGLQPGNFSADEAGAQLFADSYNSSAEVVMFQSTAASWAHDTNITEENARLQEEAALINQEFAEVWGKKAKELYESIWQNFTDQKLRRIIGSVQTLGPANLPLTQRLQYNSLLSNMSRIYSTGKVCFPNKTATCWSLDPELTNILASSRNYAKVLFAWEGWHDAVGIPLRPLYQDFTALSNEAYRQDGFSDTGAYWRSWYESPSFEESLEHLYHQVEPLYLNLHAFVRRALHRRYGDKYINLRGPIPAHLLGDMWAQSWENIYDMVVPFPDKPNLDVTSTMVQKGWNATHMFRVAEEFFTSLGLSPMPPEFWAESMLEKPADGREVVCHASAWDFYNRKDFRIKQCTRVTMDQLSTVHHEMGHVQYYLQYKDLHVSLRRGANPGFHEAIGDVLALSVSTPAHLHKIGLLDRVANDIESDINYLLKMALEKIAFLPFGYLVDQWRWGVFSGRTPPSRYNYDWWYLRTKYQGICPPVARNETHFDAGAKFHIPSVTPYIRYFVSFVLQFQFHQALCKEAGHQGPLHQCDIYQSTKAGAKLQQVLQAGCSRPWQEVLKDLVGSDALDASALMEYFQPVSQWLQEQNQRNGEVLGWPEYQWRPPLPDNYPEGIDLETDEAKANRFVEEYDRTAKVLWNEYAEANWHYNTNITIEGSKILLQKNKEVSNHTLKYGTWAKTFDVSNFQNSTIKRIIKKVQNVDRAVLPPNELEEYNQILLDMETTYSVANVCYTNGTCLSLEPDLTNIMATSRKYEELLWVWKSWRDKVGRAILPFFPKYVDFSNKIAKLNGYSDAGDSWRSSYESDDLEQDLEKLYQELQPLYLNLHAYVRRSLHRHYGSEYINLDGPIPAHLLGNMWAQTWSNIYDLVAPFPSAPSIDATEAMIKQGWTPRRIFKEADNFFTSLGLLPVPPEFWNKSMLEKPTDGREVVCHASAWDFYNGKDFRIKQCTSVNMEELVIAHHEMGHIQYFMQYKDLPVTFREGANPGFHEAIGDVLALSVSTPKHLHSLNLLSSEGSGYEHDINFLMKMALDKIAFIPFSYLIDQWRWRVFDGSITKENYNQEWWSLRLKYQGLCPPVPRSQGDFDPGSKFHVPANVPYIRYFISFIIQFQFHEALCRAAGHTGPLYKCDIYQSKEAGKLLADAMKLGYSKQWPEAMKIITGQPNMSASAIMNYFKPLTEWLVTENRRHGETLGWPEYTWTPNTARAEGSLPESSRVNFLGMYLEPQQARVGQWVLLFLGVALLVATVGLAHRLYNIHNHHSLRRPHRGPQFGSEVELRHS
Method: ACE-inhibitory activity in vivo:
Normotensive rats were anesthetized with urethane (1.5 g/kg, s.c.), and agiotensin I (75~300 ng/kg) was injected into the femoral vein of the rates. The pressor response to angiotensin I was measured with a pressure transducer connected to the carotid artery. Then, a test compound was administered orally thereto at a dose of 1.0 mg/kg, and angiotensin I (300 ng/kg) was further injected intravenously at intervals. The ACE-inhibitory activity of the test compound was estimated from the pressor responses to angiotensin I which were obtained before and after oral administration of the test compound.

[2] = tested on: mice; assay: Toxicity after oral administration to mice; format: in vivo; conditions: 3 g/kg orally
Method: For example, when (4S)-1-benzyl- 3-[(2S)-3-benzoylthio-2-methylpropionyl]-2-oxo-imidazolidine-4-carboxylic acid was administered orally to mice at a dose of 3 g/kg, no mouse died within 7 days after said administration.

[3] = tested on: spontaneously hypertensive rats (SHR); assay: Hypotensive activity in SHR; format: in vivo; conditions: 50 mg/kg orally; for Decrease in blood pressure (-ΔmmHg): SHR fasted overnight, systolic blood pressure, tail plethysmography
Method: Hypotensive activity in SHR:
A test compound suspended in an aqueous carboxymethylcellulose solution was administered orally to spontaneously hypertensive rats (SHR) fasted overnight. The systolic blood pressure of the rats was measured by the tail plethysmographic technique (The Journal of Laboratory and Clicical Medicine 78 (1971), page 957). The hypotensive activity of the test compound was estimated from the decreased level of blood pressure.

Row | Duration of action [1] [min] | inhibition at 1 mg/kg ([1]; angiotensin I 300 ng/kg i.v.) [%] | ACE-inhibitory activity (%), percentage inhibition of ACE-activity in vivo ([1]; angiotensin I 300 ng/kg i.v.) | SMILES | Mortality within 7 days after administration [2] | Decrease in blood pressure (-ΔmmHg) [3] [mmHg] | Decrease in blood pressure (-ΔmmHg) ([3]; listed as (4S)-1-benzyl-3-[(2S)-3-benzoylthio-2-methylpropionyl]-2-oxo-imidazolidine-4-car) | Duration of action ([3]; hypotensive activity, SHR, 50 mg/kg) [h] | Duration of action (hours) ([3]; hypotensive activity, SHR, listed as (4S)-1-benzyl-3-[(2S)-3-benzoylthio-2-methylpropionyl]-2-oxo-imidazolidine-4-car, 50 mg/kg) | Duration of action ([3]; hypotensive activity, SHR) [h]
1 | > 120 | 84 |  | CCN1C[C@@H](C(=O)O)N(C(=O)[C@H](C)CSC(=O)c2ccccc2)C1=O [C2 H5 C6 H5, (4S)-1-ethyl-3-[(2S)-3-benzoylthio-2-methylpropionyl]-2-oxo-imidazolidine-4-carboxylic acid] |  |  |  |  |  | 
2 | > 120 | 88 | about 90% | C[C@H](CSC(=O)c1ccccc1)C(=O)N1C(=O)N(C)C[C@H]1C(=O)O [CH3 C6 H5, (4S)-1-methyl-3-[(2S)-3-benzoylthio-2-methylpropionyl]-2-oxo-imidazolidine-4-carboxylic acid] |  |  |  |  |  | 
3 | > 120 | 67 |  | CC(=O)SC[C@@H](C)C(=O)N1C(=O)N(C)C[C@H]1C(=O)O [CH3 CH3, (4S)-1-methyl-3-[(2S)-3-acetylthio-2-methylpropionyl]-2-oxo-imidazolidine-4-carboxylic acid] |  | 37 |  |  |  | > 6

Row | SMILES | Duration of action [1] [min] | inhibition at 1 mg/kg ([1]; angiotensin I 300 ng/kg i.v.) [%] | ACE-inhibitory activity (%), percentage inhibition of ACE-activity in vivo ([1]; angiotensin I 300 ng/kg i.v.) | Mortality within 7 days after administration [2] | Decrease in blood pressure (-ΔmmHg) [3] [mmHg] | Decrease in blood pressure (-ΔmmHg) ([3]; listed as (4S)-1-benzyl-3-[(2S)-3-benzoylthio-2-methylpropionyl]-2-oxo-imidazolidine-4-car) | Duration of action ([3]; hypotensive activity, SHR, 50 mg/kg) [h] | Duration of action (hours) ([3]; hypotensive activity, SHR, listed as (4S)-1-benzyl-3-[(2S)-3-benzoylthio-2-methylpropionyl]-2-oxo-imidazolidine-4-car, 50 mg/kg) | Duration of action ([3]; hypotensive activity, SHR) [h]
4 | C[C@H](CSC(=O)c1ccccc1)C(=O)N1C(=O)N(Cc2ccccc2)C[C@H]1C(=O)O [C6 H5 CH2 C6 H5, (4S)-1-benzyl-3-[(2S)-3-benzoylthio-2-methylpropionyl]-2-oxo-imidazolidine-4-carboxylic acid] | > 120 | 76 |  | no mouse died | 44 | about 44 mmHg | > 6 | more than 6 hours | 
